Experimental data from the NIST ThermoML archive (doi:10.1021/je0340755).

Experiment: xn = mol fraction of the nth substance listed
Details: 101.3 kPa, Liquid; for viscosity: Capillary tube (Ostwald / Ubbelohde) method

CCC(O)CO (stereo not given) [1,2-butanediol] + O
Details | mass density [kg/m3] | speed of sound [m/s] | viscosity [mPa·s]
298.15 K, x2 = 0.0471 | 999.56 | 1455.6 | 54.4
298.15 K, x2 = 0.1478 | 1001.36 | 1480.8 | 47.22
298.15 K, x2 = 0.2481 | 1003.09 | 1497.6 | 39.78
298.15 K, x2 = 0.3491 | 1005.12 | 1517.2 | 32.56
298.15 K, x2 = 0.443 | 1007.55 | 1545.9 | 26.42
298.15 K, x2 = 0.4971 | 1009.14 | 1564.2 | 23.17
298.15 K, x2 = 0.5552 | 1010.88 | 1581.1 | 19.92
298.15 K, x2 = 0.6494 | 1013.49 | 1600.3 | 15.11
298.15 K, x2 = 0.7491 | 1015.73 | 1622.2 | 10.48
298.15 K, x2 = 0.8547 | 1016.98 | 1666.2 | 5.959
298.15 K, x2 = 0.9081 | 1015.65 | 1670.6 | 3.869
298.15 K, x2 = 0.9144 | 1015.26 | 1667.8 | 3.635
298.15 K, x2 = 0.9255 | 1014.39 | 1660.6 | 3.232
298.15 K, x2 = 0.9353 | 1013.39 | 1651 | 2.885
298.15 K, x2 = 0.9543 | 1010.65 | 1623.1 | 2.241
298.15 K, x2 = 0.9562 | 1010.3 | 1619.5 | 2.179
298.15 K, x2 = 0.9598 | 1009.61 | 1612.5 | 2.063
298.15 K, x2 = 0.97 | 1007.33 | 1589.6 | 1.743
298.15 K, x2 = 0.9806 | 1004.38 | 1561 | 1.425
298.15 K, x2 = 0.9902 | 1001.1 | 1531.6 | 1.152
298.15 K, x2 = 0.9923 | 1000.29 | 1524.8 | 1.095
298.15 K, x2 = 0.9956 | 998.96 | 1513.5 | 1.006
308.15 K, x2 = 0.0471 | 992.15 | 1426 | 28.67
308.15 K, x2 = 0.1478 | 993.92 | 1443.9 | 25.18
308.15 K, x2 = 0.2481 | 995.73 | 1452.8 | 21.61
308.15 K, x2 = 0.3491 | 997.81 | 1474 | 18.1
308.15 K, x2 = 0.443 | 1000.17 | 1496.6 | 15.04
308.15 K, x2 = 0.4971 | 1001.68 | 1508.1 | 13.39
308.15 K, x2 = 0.5552 | 1003.37 | 1519.5 | 11.69
308.15 K, x2 = 0.6494 | 1006.11 | 1542.9 | 9.091
308.15 K, x2 = 0.7491 | 1008.77 | 1585.6 | 6.504
308.15 K, x2 = 0.8547 | 1010.49 | 1640.7 | 3.9
308.15 K, x2 = 0.9081 | 1009.43 | 1647.5 | 2.651
308.15 K, x2 = 0.9144 | 1009.1 | 1645.9 | 2.509
308.15 K, x2 = 0.9255 | 1008.36 | 1641.4 | 2.26
308.15 K, x2 = 0.9353 | 1007.51 | 1635.3 | 2.044
308.15 K, x2 = 0.9543 | 1005.2 | 1617.1 | 1.635
308.15 K, x2 = 0.9562 | 1004.91 | 1614.7 | 1.594
308.15 K, x2 = 0.9598 | 1004.33 | 1610 | 1.519
308.15 K, x2 = 0.97 | 1002.44 | 1594.4 | 1.308
308.15 K, x2 = 0.9806 | 1000 | 1574.5 | 1.094
308.15 K, x2 = 0.9902 | 997.32 | 1552.8 | 0.906
308.15 K, x2 = 0.9923 | 996.67 | 1547.5 | 0.865
308.15 K, x2 = 0.9956 | 995.58 | 1538.9 | 0.802
318.15 K, x2 = 0.0471 | 984.63 | 1396.5 | 16.54
318.15 K, x2 = 0.1478 | 986.4 | 1415 | 14.53
318.15 K, x2 = 0.2481 | 988.13 | 1422.4 | 12.47
318.15 K, x2 = 0.3491 | 990.15 | 1441.3 | 10.46
318.15 K, x2 = 0.443 | 992.53 | 1462.7 | 8.706
318.15 K, x2 = 0.4971 | 994.08 | 1474.1 | 7.758
318.15 K, x2 = 0.5552 | 995.8 | 1485.9 | 6.789
318.15 K, x2 = 0.6494 | 998.48 | 1510 | 5.314
318.15 K, x2 = 0.7491 | 1001.03 | 1553.8 | 3.848
318.15 K, x2 = 0.8547 | 1003.2 | 1614.7 | 2.378
318.15 K, x2 = 0.9081 | 1003 | 1630.6 | 1.675
318.15 K, x2 = 0.9144 | 1002.81 | 1630.5 | 1.595
318.15 K, x2 = 0.9255 | 1002.34 | 1629 | 1.455
318.15 K, x2 = 0.9353 | 1001.75 | 1626 | 1.334
318.15 K, x2 = 0.9543 | 999.98 | 1614.7 | 1.105
318.15 K, x2 = 0.9562 | 999.74 | 1613.2 | 1.083
318.15 K, x2 = 0.9598 | 999.27 | 1610 | 1.041
318.15 K, x2 = 0.97 | 997.69 | 1599 | 0.923
318.15 K, x2 = 0.9806 | 995.59 | 1584.6 | 0.804
318.15 K, x2 = 0.9902 | 993.21 | 1568.4 | 0.699
318.15 K, x2 = 0.9923 | 992.62 | 1564.4 | 0.677
318.15 K, x2 = 0.9956 | 991.63 | 1557.9 | 0.642
328.15 K, x2 = 0.0471 | 976.76 | 1381.6 | 10.36
328.15 K, x2 = 0.1478 | 978.45 | 1392.6 | 9.126
328.15 K, x2 = 0.2481 | 980.12 | 1404 | 7.863
328.15 K, x2 = 0.3491 | 982.09 | 1421.6 | 6.626
328.15 K, x2 = 0.443 | 984.39 | 1440 | 5.547
328.15 K, x2 = 0.4971 | 985.9 | 1450.7 | 4.962
328.15 K, x2 = 0.5552 | 987.59 | 1464.3 | 4.363
328.15 K, x2 = 0.6494 | 990.29 | 1490.7 | 3.447
328.15 K, x2 = 0.7491 | 993 | 1532.6 | 2.533
328.15 K, x2 = 0.8547 | 995.64 | 1592.7 | 1.615
328.15 K, x2 = 0.9081 | 995.96 | 1611.9 | 1.177
328.15 K, x2 = 0.9144 | 995.86 | 1612.7 | 1.127
328.15 K, x2 = 0.9255 | 995.56 | 1612.9 | 1.04
328.15 K, x2 = 0.9353 | 995.14 | 1611.8 | 0.964
328.15 K, x2 = 0.9543 | 993.79 | 1604.2 | 0.821
328.15 K, x2 = 0.9562 | 993.61 | 1603.4 | 0.807
328.15 K, x2 = 0.9598 | 993.23 | 1601.5 | 0.781
328.15 K, x2 = 0.97 | 991.96 | 1594 | 0.707
328.15 K, x2 = 0.9806 | 990.23 | 1583.2 | 0.633
328.15 K, x2 = 0.9902 | 988.23 | 1571.2 | 0.568
328.15 K, x2 = 0.9923 | 987.73 | 1568.9 | 0.554
328.15 K, x2 = 0.9956 | 986.9 | 1563.4 | 0.532
338.15 K, x2 = 0.0471 | 968.75 | 1365.8 | 6.896
338.15 K, x2 = 0.1478 | 970.35 | 1376.1 | 6.061
338.15 K, x2 = 0.2481 | 971.96 | 1387.3 | 5.201
338.15 K, x2 = 0.3491 | 973.85 | 1402.7 | 4.361
338.15 K, x2 = 0.443 | 976.07 | 1420.1 | 3.638
338.15 K, x2 = 0.4971 | 977.53 | 1430.2 | 3.251
338.15 K, x2 = 0.5552 | 979.18 | 1443.6 | 2.859
338.15 K, x2 = 0.6494 | 981.87 | 1468.5 | 2.268
338.15 K, x2 = 0.7491 | 984.71 | 1507.6 | 1.689
338.15 K, x2 = 0.8547 | 987.72 | 1565.4 | 1.114
338.15 K, x2 = 0.9081 | 988.49 | 1587.3 | 0.843
338.15 K, x2 = 0.9144 | 988.47 | 1588.5 | 0.812
338.15 K, x2 = 0.9255 | 988.32 | 1590.4 | 0.759
338.15 K, x2 = 0.9353 | 988.06 | 1591 | 0.713
338.15 K, x2 = 0.9543 | 987.1 | 1588.9 | 0.626
338.15 K, x2 = 0.9562 | 986.96 | 1588.1 | 0.618
338.15 K, x2 = 0.9598 | 986.68 | 1587.6 | 0.602
338.15 K, x2 = 0.97 | 985.68 | 1583.6 | 0.558
338.15 K, x2 = 0.9806 | 984.29 | 1577.1 | 0.514
338.15 K, x2 = 0.9902 | 982.66 | 1570.2 | 0.476
338.15 K, x2 = 0.9923 | 982.25 | 1568 | 0.467
338.15 K, x2 = 0.9956 | 981.55 | 1564.9 | 0.455
